PubChem BioAssay (NCI)
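Compound exposure: 48 hours, 5 concentrations, 96-well plates. TGI: total growth inhibition.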

Columns and labels:
Assay in all cases: inhibition of tumour cell growth, NCI panel, 48 h
HCT-15 colon = system: HCT-15 colon
NCI/ADR-RES ovarian = system: NCI/ADR-RES ovarian
TK-10 renal = system: TK-10 renal
OVCAR-3 ovarian = system: OVCAR-3 ovarian
U251 CNS = system: U251 CNS
OVCAR-8 ovarian = system: OVCAR-8 ovarian
CAKI-1 renal = system: CAKI-1 renal
SK-MEL-28 melanoma = system: SK-MEL-28 melanoma
786-0 renal = system: 786-0 renal
IGROV1 ovarian = system: IGROV1 ovarian
A549 NSCLC = system: A549 NSCLC
UACC-62 melanoma = system: UACC-62 melanoma
BT-549 breast = system: BT-549 breast
SF-268 CNS = system: SF-268 CNS
T-47D breast = system: T-47D breast
HCC-2998 colon = system: HCC-2998 colon
SK-OV-3 ovarian = system: SK-OV-3 ovarian
NCI-H522 lung = system: NCI-H522 lung
SF-295 CNS = system: SF-295 CNS
HOP-62 NSCLC = system: HOP-62 NSCLC
SK-MEL-5 melanoma = system: SK-MEL-5 melanoma
HCT-116 colon = system: HCT-116 colon
SN12C renal = system: SN12C renal
SNB-75 CNS = system: SNB-75 CNS
MCF7 breast = system: MCF7 breast
PC-3 prostate = system: PC-3 prostate
MDA-MB-435 = system: MDA-MB-435
MDA-N = system: MDA-N
M14 melanoma = system: M14 melanoma
LOX IMVI melanoma = system: LOX IMVI melanoma
SR leukemia = system: SR leukemia
OVCAR-5 ovarian = system: OVCAR-5 ovarian
SF-539 CNS = system: SF-539 CNS
K-562 leukemia = system: K-562 leukemia
SK-MEL-2 melanoma = system: SK-MEL-2 melanoma
ACHN renal = system: ACHN renal
SW-620 colon = system: SW-620 colon
COLO 205 colon = system: COLO 205 colon
HT29 colon = system: HT29 colon
SNB-19 CNS = system: SNB-19 CNS
OVCAR-4 ovarian = system: OVCAR-4 ovarian
MALME-3M melanoma = system: MALME-3M melanoma
HOP-92 NSCLC = system: HOP-92 NSCLC
MOLT-4 leukemia = system: MOLT-4 leukemia
CCRF-CEM leukemia = system: CCRF-CEM leukemia
KM12 colon = system: KM12 colon
UACC-257 melanoma = system: UACC-257 melanoma
HL-60(TB) leukemia = system: HL-60(TB) leukemia
NCI-H23 lung = system: NCI-H23 lung
RPMI-8226 leukemia = system: RPMI-8226 leukemia
DU-145 prostate = system: DU-145 prostate
HS 578T breast = system: HS 578T breast
UO-31 renal = system: UO-31 renal
NCI-H226 lung = system: NCI-H226 lung
MDA-MB-231 breast = system: MDA-MB-231 breast
EKVX NSCLC = system: EKVX NSCLC
NCI-H460 lung = system: NCI-H460 lung
A498 renal = system: A498 renal
RXF 393 renal = system: RXF 393 renal

Measured: TGI

COC1CC(OC2C(C)OC(OC3C(C)OC(OC4C(C)OC(O[C@H]5CC[C@@]6(C)C(=CC[C@]7(O)[C@@H]6C[C@@H](O)[C@@]6(C)[C@]7(O)CC[C@@]6(O)C(C)=O)C5)CC4OC)CC3OC)CC2OC)OC(C)C1O (stereo partly specified)
not listed: NCI-H460 lung | A498 renal | RXF 393 renal
> 12.5 µM: all other assays above

Nc1ccn(C2OC(C(OC3OC(CO)C(O)C(N)C3O)C(O)C(O)C(O)C(O)CO)C(N)C(O)C2O)c(=O)n1 (stereo unspecified)
68.6 µM: SF-268 CNS
58 µM: SF-295 CNS
41.1 µM: MDA-MB-231 breast
86.6 µM: OVCAR-3 ovarian
7.27 µM: HS 578T breast
78.6 µM: SF-539 CNS
32.9 µM: HCC-2998 colon
14.8 µM: OVCAR-4 ovarian
99 µM: BT-549 breast
93.5 µM: NCI-H522 lung
24.6 µM: HOP-92 NSCLC
not listed: SK-OV-3 ovarian | SNB-75 CNS | K-562 leukemia | MALME-3M melanoma | NCI-H226 lung | RXF 393 renal
> 100 µM: all other assays above

O=C1N(c2ccccc2)C(=S)/C(=C/c2ccc(Cl)cc2)N1c1ccc(Cl)cc1
64.2 µM: 786-0 renal
38.4 µM: NCI-H522 lung
96.6 µM: U251 CNS
90.5 µM: MDA-MB-231 breast
89.8 µM: TK-10 renal
63.9 µM: MALME-3M melanoma
13.5 µM: MOLT-4 leukemia
56.2 µM: SNB-75 CNS
49.1 µM: ACHN renal
15.5 µM: SR leukemia
95.7 µM: SK-OV-3 ovarian
76.5 µM: LOX IMVI melanoma
74.4 µM: HL-60(TB) leukemia
53.3 µM: UACC-62 melanoma
52.5 µM: RPMI-8226 leukemia
41.2 µM: SF-539 CNS
61.1 µM: CCRF-CEM leukemia
not listed: HOP-92 NSCLC | NCI-H226 lung
> 100 µM: all other assays above

CCCOC(=O)C1C2CCC(O2)C1C(=O)O (stereo unspecified)
not listed: HCC-2998 colon | SF-539 CNS | HOP-92 NSCLC | NCI-H460 lung
> 100 µM: all other assays above

Clc1cc2nnn(C3CCCO3)c2cc1Cl (stereo unspecified)
not listed: SK-MEL-28 melanoma | LOX IMVI melanoma | ACHN renal | SW-620 colon | SNB-19 CNS | OVCAR-4 ovarian | HOP-92 NSCLC | KM12 colon | RPMI-8226 leukemia | UO-31 renal
> 100 µM: all other assays above

CCOC(=O)c1cc(Br)c(-c2cc(C)co2)[nH]1
not listed: TK-10 renal | NCI-H522 lung | ACHN renal
> 100 µM: all other assays above

Cn1cc(NC(=O)Nc2cc(C(=O)Nc3cc(C(=O)Nc4cc(S(=O)(=O)O)c5cc(S(=O)(=O)O)cc(S(=O)(=O)O)c5c4)n(C)c3)n(C)c2)cc1C(=O)Nc1cc(C(=O)Nc2cc(S(=O)(=O)O)c3cc(S(=O)(=O)O)cc(S(=O)(=O)O)c3c2)n(C)c1
not listed: CAKI-1 renal | LOX IMVI melanoma | SK-MEL-2 melanoma | A498 renal
> 100 µM: all other assays above
